# Test results taken from ChEMBL document CHEMBL5725264, “4-(ortho)-fluorophenyl-5-fluoropyrimidin-2-yl amines containing a sulfoximine group” (2016).
# How the values were obtained:
# [1] = CDK9/CycT1 Kinase Assay: Method 1a: Recombinant full-length His-tagged human CDK9 and CycT1, expressed in insect cells and purified by Ni-NTA affinity chromatography, were purchased from Invitrogen (Cat. No PV4131). As substrate for the kinase reaction biotinylated peptide biotin-Ttds-[…] (C-terminus in amid form) was used which can be purchased e.g. form the company JERINI Peptide Technologies (Berlin, Germany).For the assay 50 nl of a 100 fold concentrated solution of the test compound in DMSO was pipetted into a black low volume 384 well microtiter plate (Greiner Bio-One, Frickenhausen, Germany), 2 ul of a solution of CDK9/CycT1 in aqueous assay buffer [50 mM Tris/HCl pH 8.0, 10 mM MgCl2, 1.0 mM dithiothreitol, 0.1 mM sodium ortho-vanadate, 0.01% (v/v) Nonidet-P40 (Sigma)] were added and the mixture was incubated for 15 min at 22° C. to allow pre-binding of the test compounds to the enzyme before the start of the kinase reaction. […] The concentration of CDK9/CycT1 was adjusted depending of the activity of the enzyme lot and was chosen appropriate to have the assay in the linear range, typical concentrations were in the range of 1 ug/ml. […]
# [2] = CDK9/CycT1 High ATP Kinase Assay: Method 1b: Recombinant full-length His-tagged human CDK9 and CycT1, expressed in insect cells and purified by Ni-NTA affinity chromatography, were purchase from Invitrogen (Cat. No PV4131). As substrate for the kinase reaction biotinylated peptide biotin-Ttds-[…] (C-terminus in amid form) was used which can be purchased e.g. form the company JERINI peptide technologies (Berlin, Germany).For the assay 50 nl of a 100 fold concentrated solution of the test compound in DMSO was pipetted into a black low volume 384 well microtiter plate (Greiner Bio-One, Frickenhausen, Germany), 2 ul of a solution of CDK9/CycT1 in aqueous assay buffer [50 mM Tris/HCl pH 8.0, 10 mM MgCl2, 1.0 mM dithiothreitol, 0.1 mM sodium ortho-vanadate, 0.01% (v/v) Nonidet-P40 (Sigma)] were added and the mixture was incubated for 15 min at 22° C. to allow pre-binding of the test compounds to the enzyme before the start of the kinase reaction. […] The concentration of CDK9/CycT1 was adjusted depending of the activity of the enzyme lot and was chosen appropriate to have the assay in the linear range, typical concentrations were in the range of 0.5 ug/ml. […]
# [3] = CDK2/CycE Kinase Assay: Method 2: Recombinant fusion proteins of GST and human CDK2 and of GST and human CycE, expressed in insect cells (Sf9) and purified by Glutathion-Sepharose affinity chromatography, were purchased from ProQinase GmbH (Freiburg, Germany). As substrate for the kinase reaction biotinylated peptide biotin-Ttds-[…] (C-terminus in amid form) was used which can be purchased e.g. form the company JERINI Peptide Technologies (Berlin, Germany).For the assay 50 nl of a 100 fold concentrated solution of the test compound in DMSO was pipetted into a black low volume 384 well microtiter plate (Greiner Bio-One, Frickenhausen, Germany), 2 ul of a solution of CDK2/CycE in aqueous assay buffer [50 mM Tris/HCl pH 8.0, 10 mM MgCl2, 1.0 mM dithiothreitol, 0.1 mM sodium ortho-vanadate, 0.01% (v/v) Nonidet-P40 (Sigma)] were added and the mixture was incubated for 15 min at 22° C. to allow pre-binding of the test compounds to the enzyme before the start of the kinase reaction. […] The concentration of CDK2/CycE was adjusted depending of the activity of the enzyme lot and was chosen appropriate to have the assay in the linear range, typical concentrations were in the range of 130 ng/ml. […]
Structure (SMILES),IC50 [1],IC50 [2],IC50 [3]
C[S@@](=N)(=O)Cc1cc(Nc2ncc(F)c(-c3ccc(F)cc3F)n2)cc(C(F)(F)F)c1,11 nM,235 nM,780 nM
C[S@](=N)(=O)Cc1cc(Nc2ncc(F)c(-c3ccc(F)cc3F)n2)cc(C(F)(F)F)c1,13 nM,231 nM,630 nM
